Assay results: patent US20250295683A1, “HETEROCYCLIC COMPOUND, PREPARATION METHOD THEREFOR AND APPLICATION THEREOF” (SICHUAN KELUN-BIOTECH BIOPHARMACEUTICAL CO., LTD., priority 2022, published 2025)

Experiments:
Plasminogen (Glu-Typ) = target: T1, Plasminogen (Glu-Typ) (Homo sapiens, UniProt P00747); assay: Activation effect of the compounds on plasminogen (Glu-Typ), u-PA / VLK-pNA kinetic assay; assay type: biochemical; settings: for Activation multiples (5 min): slope of A405 vs t^2 divided by slope of control group; for Activation potency on plasminogen compared with the positive compound: at the same concentration
T1 construct: Plasminogen (Glu-Typ) (sigma); purchased sigma (plasminogen); Aladdin (u-PA)
T1 sequence (P00747 20-810 limits assumed): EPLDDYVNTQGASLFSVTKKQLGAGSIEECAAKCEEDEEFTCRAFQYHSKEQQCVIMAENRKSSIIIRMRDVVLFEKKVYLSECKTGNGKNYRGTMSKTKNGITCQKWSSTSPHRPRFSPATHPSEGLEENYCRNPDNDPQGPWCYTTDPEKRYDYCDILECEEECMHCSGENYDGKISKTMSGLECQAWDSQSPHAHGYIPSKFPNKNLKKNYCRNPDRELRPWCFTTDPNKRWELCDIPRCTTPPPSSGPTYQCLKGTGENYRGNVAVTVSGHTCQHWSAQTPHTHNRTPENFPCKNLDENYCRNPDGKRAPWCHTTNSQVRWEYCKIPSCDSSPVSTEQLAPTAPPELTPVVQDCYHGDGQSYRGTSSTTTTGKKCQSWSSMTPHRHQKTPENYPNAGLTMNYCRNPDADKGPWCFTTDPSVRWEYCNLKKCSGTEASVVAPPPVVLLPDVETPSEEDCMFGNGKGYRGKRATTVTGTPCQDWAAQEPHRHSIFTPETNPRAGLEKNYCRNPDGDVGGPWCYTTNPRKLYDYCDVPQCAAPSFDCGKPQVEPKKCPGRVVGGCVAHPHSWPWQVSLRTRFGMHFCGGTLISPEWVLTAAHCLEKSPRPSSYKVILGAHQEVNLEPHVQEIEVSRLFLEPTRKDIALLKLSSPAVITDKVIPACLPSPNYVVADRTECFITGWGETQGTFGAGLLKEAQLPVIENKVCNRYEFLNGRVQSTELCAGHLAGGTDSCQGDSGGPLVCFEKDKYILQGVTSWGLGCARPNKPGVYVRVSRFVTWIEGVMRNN
Protocol: (1) Formulation of Compounds The test compounds of the present invention and the positive compound are all set at three concentration points, i.e., 200 μM, 150 μM and 100 μM, respectively; the final concentration in DMSO was 2.5%.
Plasminogen (Glu-Typ) (sigma); urokinase-type plasminogen activator (u-PA) (Aladdin); vLK-pNA (absin); Multifunctional microplate reader (Thermo).
Plasminogen, the urokinase-type Plasminogen activator (u-PA) and VLK-pNA were formulated in a buffer [Tris-HCl (50 mM, pH 7.4)+NaCl (100 mM)+Tween-80 (0.01%)] to obtain mother solutions at concentrations of 100 nM (5×), 100 IU/ml (5×), and 5 mM (5×), respectively. 20 μl of 5× Plasminogen (Glu-Typ), 20 μl of 5× urokinase-type Plasminogen activator (u-PA) and 20 μl of 5×VLK-pNA were added to a 96-well plate. After mixing uniformly, 40 μl of the test compounds or positive compound were added to the 96-well plate, and a control group (no compound) was set up. The mixture was uniformly mixed well. The kinetic detection was performed using a Thermo multifunctional microplate reader, the detection wavelength was 405 nm, and the activation factor was calculated.
The following results were obtained by plotting the absorbance value at 405 nm (A405) versus time squared (t^2), using the slope of the curve for analysis, and calculating the activation multiples by dividing the slope of the compound group by the slope of the control group (see Table 1-1 and Table 1-2).

whole blood of rat = assay: Fibrinolysis effect shown by thromboelastography (TEG) with u-PA; settings: for Ma (strength of the blood clot formed): rat whole blood; for Thrombolytic activity compared with the positive compound: according to the Ma values and thromboelastograms
Protocol: Main Instruments and Reagents: thromboelastography TEG (Udibio); urokinase-type plasminogen activator (u-PA) (Aladdin); reagent 1 (the main component is kaolin); reagent 2 (main component is calcium chloride).
• (1) Test group setting: uPA group: urokinase-type plasminogen activator (u-PA) (1000 U/ml); positive compound/compound 2-1/compound 2-2 group: test compound (200 μM)+u-PA (1000 U/ml); blank group: vehicle. • (2) Formulation of compound solution: the compound was formulated using a 0.5 mg/ml trometamol solution to obtain a 4 mM mother solution, adjusted to pH 9, and diluted to a 2 mM 10× mother solution. The final test concentration was 200 μM. u-PA was formulated as a 50,000 U/ml mother solution using normal saline, and diluted to a 10,000 U/ml 10× mother solution. The final test concentration was 1000 U/ml. • (3) Test: 100 μL of u-PA was added to a sample cup (containing reagent 1) containing 800 μL of the whole blood of rat (anticoagulated with sodium citrate), 100 μL of the test compound was added, and the cup was inverted to mix well. 340 μL of the sample from the sample cup was added to the reaction cup containing 20 μL of reagent 2, and the instrument was allowed to run. The results are shown in Table 2-1, Table 2-2, Table 2-3, FIG. 1, FIG. 2 and FIG. 3. The compound concentration as shown in Table 2-1, Table 2-2, FIG. 1 and FIG. 2 was 200 μM; and the compound concentration as shown in Table 2-3 and FIG. 3 was 100 μM.

[1] = in vivo; cited from earlier work
[2] = stroke resulting from acute occlusion of large vessels; cited from earlier work
[3] = Table 2-1, compound 200 μM + u-PA 1000 U/ml
[4] = Table 2-2, compound 200 μM + u-PA 1000 U/ml
[5] = Table 2-3, compound 100 μM + u-PA 1000 U/ml

Activation multiples (5 min) (Plasminogen (Glu-Typ); Table 1-1, compound 100 μM)	Activation multiples (5 min) (Plasminogen (Glu-Typ); Table 1-1, compound 150 μM)	Activation multiples (5 min) (Plasminogen (Glu-Typ); Table 1-1, compound 200 μM)	Activation multiples (5 min) (Plasminogen (Glu-Typ); Table 1-2, compound 100 μM)	Activation multiples (5 min) (Plasminogen (Glu-Typ); Table 1-2, compound 150 μM)	Activation multiples (5 min) (Plasminogen (Glu-Typ); Table 1-2, compound 200 μM)	Compound	Activation potency on plasminogen compared with the positive compound (Plasminogen (Glu-Typ))	Ma (strength of the blood clot formed) (whole blood of rat; [3]) [mm]	Thrombolytic activity compared with the positive compound (whole blood of rat)	Ma (strength of the blood clot formed) (whole blood of rat; [4]) [mm]	Ma (strength of the blood clot formed) (whole blood of rat; [5]) [mm]	half-life [1] [min]	recanalization rate after intravenous thrombolysis [2] [%]
6.66	21.12	42.23				CC(C)=CCC/C(C)=C/CC[C@@]1(C)Oc2c(c(OC(=O)N3CCOCC3)cc3c2CN(CCC[C@@H](C(=O)O)N2Cc4c(cc(OC(=O)N5CCOCC5)c5c4O[C@](C)(CC/C=C(\C)CCC=C(C)C)[C@@H](O)C5)C2=O)C3=O)C[C@@H]1O [Compound 2-2, (S)-2,5-bis((2R,3S)-2-((E)-4,8-dimethylnona-3,7-dien-1-yl)-3-hydroxy-2-methyl-5-((morpholino-4-carbonyl)oxy)-7-oxo-3,4,7,9-tetrahydropyrano[2,3-e]isoindol-8(2H)-yl)pentanoi c acid]	better activation potency on plasminogen than the positive compounds	4.7	superior thrombolytic activity to the positive compound				
			4.65	52.96	90.00	CC(C)=CCC/C(C)=C/CC[C@@]1(C)Oc2c(c(OC(=O)N3CCS(=O)(=O)CC3)cc3c2CN(CCC[C@@H](C(=O)O)N2Cc4c(cc(OC(=O)N5CCS(=O)(=O)CC5)c5c4O[C@](C)(CC/C=C(\C)CCC=C(C)C)[C@@H](O)C5)C2=O)C3=O)C[C@@H]1O [Compound 2-5, (S)-2,5-bis((2R,3S)-2-((E)-4,8-dimethylnona-3,7-dien-1-yl)-5-((1,1-dioxothiomorpholino-4-carbonyl)oxy)-3-hydroxy-2-methyl-7-oxo-3,4,7,9-tetrahydropyrano[2,3-E]isoindol-8(2H)-yl)pentanoic acid]	better activation potency on plasminogen than the positive compounds		superior thrombolytic activity to the positive compound	1.9			
						CC(C)=CCC/C(C)=C/CC[C@@]1(C)Oc2c(c(OC(=O)N3CC[S+]([O-])CC3)cc3c2CN(CCC[C@@H](C(=O)O)N2Cc4c(cc(OC(=O)N5CC[S+]([O-])CC5)c5c4O[C@](C)(CC/C=C(\C)CCC=C(C)C)[C@@H](O)C5)C2=O)C3=O)C[C@@H]1O [Compound 2-6, (S)-2,5-bis((2R,3S)-2-((E)-4,8-dimethylnona-3,7-dien-1-yl)-5-((1-oxothiomorpholino-4-carbonyl)oxy)-3-hydroxy-2-methyl-7-oxo-3,4,7,9-tetrahydropyrano[2,3-E]isoindol-8(2H)-yl)pentanoic acid]			superior thrombolytic activity to the positive compound		8.8		
1.71	2.62	8.62	3.02	4.54	12.49	CC(C)=CCC/C(C)=C/CC[C@@]1(C)Oc2c(c(O)cc3c2CN(CCC[C@@H](C(=O)O)N2Cc4c(cc(O)c5c4O[C@](C)(CC/C=C(\C)CCC=C(C)C)[C@@H](O)C5)C2=O)C3=O)C[C@@H]1O [Positive compound, reference compound]		72.9		73.1	76.4		
						rt-PA: Recombinant tissue plasminogen activator						3 to 5	≤ 25

Compound	Activation multiples (5 min) (Plasminogen (Glu-Typ); Table 1-1, compound 100 μM)	Activation multiples (5 min) (Plasminogen (Glu-Typ); Table 1-1, compound 150 μM)	Activation multiples (5 min) (Plasminogen (Glu-Typ); Table 1-1, compound 200 μM)	Activation multiples (5 min) (Plasminogen (Glu-Typ); Table 1-2, compound 100 μM)	Activation multiples (5 min) (Plasminogen (Glu-Typ); Table 1-2, compound 150 μM)	Activation multiples (5 min) (Plasminogen (Glu-Typ); Table 1-2, compound 200 μM)	Activation potency on plasminogen compared with the positive compound (Plasminogen (Glu-Typ))	Ma (strength of the blood clot formed) (whole blood of rat; [3]) [mm]	Thrombolytic activity compared with the positive compound (whole blood of rat)	Ma (strength of the blood clot formed) (whole blood of rat; [4]) [mm]	Ma (strength of the blood clot formed) (whole blood of rat; [5]) [mm]	half-life [1] [min]	recanalization rate after intravenous thrombolysis [2] [%]
CC(C)=CCC/C(C)=C/CC[C@@]1(C)Oc2c(c(OC(=O)N(C)C)cc3c2CN(CCC[C@@H](C(=O)O)N2Cc4c(cc(OC(=O)N(C)C)c5c4O[C@](C)(CC/C=C(\C)CCC=C(C)C)[C@@H](O)C5)C2=O)C3=O)C[C@@H]1O [Compound 2-1, (S)-2,5-bis((2R,3S)-5-((dimethylcarbamoyl)oxy)-2-((E)-4,8-dimethylnona-3,7-dien-1-yl)-3-hydroxy-2-methyl-7-oxo-3,4,7,9-tetrahydropyrano[2,3-E]isoindol-8(2H)-yl)pentanoic acid]	5.22	15.93	42.97				better activation potency on plasminogen than the positive compounds	4.7	superior thrombolytic activity to the positive compound				
